Tests used:
[1] = octanol/water; cited from earlier work
[2] = stability under ethylene oxide sterilization, heating and aging; reaction with paclitaxel; settings: for reaction with paclitaxel: ethylene oxide sterilization, heating, aging
[3] = BSA added; cited from earlier work
protein (albumin) = settings: cited from earlier work
[4] = cited from earlier work

## COc1ccc(O)c(C(C)(C)C)c1 [Butylated hydroxyanisole]
[1]
  log P: 1.31

## O=C1O[C@H]([C@@H](O)CO)C(O)=C1O [ascorbic acid]
[2]
  reaction with paclitaxel: reacted with paclitaxel

## O=C(O)c1ccccc1 [benzoic acid]
[2]
  reaction with paclitaxel: reacted with paclitaxel
[2]; formulated with paclitaxel
  stability under ethylene oxide sterilization, heating, and aging process: not stable

## OCCNCCO [diethanolamine]
[2]
  reaction with paclitaxel: reacted with paclitaxel

## CC(=O)O[C@H]1C(=O)[C@@]2(C)[C@H]([C@H](OC(=O)c3ccccc3)[C@]3(O)C[C@H](OC(=O)[C@H](O)[C@@H](NC(=O)c4ccccc4)c4ccccc4)C(C)=C1C3(C)C)[C@]1(OC(C)=O)CO[C@@H]1C[C@@H]2O [paclitaxel]
[3]
  increase of solubility in PBS with the addition of BSA: over 20 fold

## CO[C@H]1C[C@@H]2CC[C@@H](C)[C@@](O)(O2)C(=O)C(=O)N2CCCC[C@H]2C(=O)O[C@H]([C@H](C)C[C@@H]2CC[C@@H](O)[C@H](OC)C2)CC(=O)[C@H](C)/C=C(\C)[C@@H](O)[C@@H](OC)C(=O)[C@H](C)C[C@H](C)/C=C/C=C/C=C/1C [rapamycin]
Protein (albumin)
  protein bound: 92%
Protein (albumin); primarily to albumin
  share of protein binding that is to albumin: 97%

## PEG-20 sorbitan monolaurate [Tween 20]
[1]
  log P: about 3.0

## Sudan Red
[4]
  solubility in aqueous solvent: insoluble in aqueous solvent
